According to US7598245B2 (Vertex Pharmaceuticals Incorporated, priority 2003, dated 2009):
Values joined by “and” are separate entries in the source; they are usually repeats but may differ in a detail not shown here. Equal values may be shown once.

Key:
[1] = biological target: T1, FLT-3 (Homo sapiens, UniProt P36888); assay: Inhibition of FLT-3, radiometric filter-binding assay; assay type: biochemical; details: 90 μM ATP, pE4Y substrate; read-out: Ki values (FLT-3)
T1 construct: 0.02% BSA and 3 nM FLT-3
T1 sequence (P36888 27-993): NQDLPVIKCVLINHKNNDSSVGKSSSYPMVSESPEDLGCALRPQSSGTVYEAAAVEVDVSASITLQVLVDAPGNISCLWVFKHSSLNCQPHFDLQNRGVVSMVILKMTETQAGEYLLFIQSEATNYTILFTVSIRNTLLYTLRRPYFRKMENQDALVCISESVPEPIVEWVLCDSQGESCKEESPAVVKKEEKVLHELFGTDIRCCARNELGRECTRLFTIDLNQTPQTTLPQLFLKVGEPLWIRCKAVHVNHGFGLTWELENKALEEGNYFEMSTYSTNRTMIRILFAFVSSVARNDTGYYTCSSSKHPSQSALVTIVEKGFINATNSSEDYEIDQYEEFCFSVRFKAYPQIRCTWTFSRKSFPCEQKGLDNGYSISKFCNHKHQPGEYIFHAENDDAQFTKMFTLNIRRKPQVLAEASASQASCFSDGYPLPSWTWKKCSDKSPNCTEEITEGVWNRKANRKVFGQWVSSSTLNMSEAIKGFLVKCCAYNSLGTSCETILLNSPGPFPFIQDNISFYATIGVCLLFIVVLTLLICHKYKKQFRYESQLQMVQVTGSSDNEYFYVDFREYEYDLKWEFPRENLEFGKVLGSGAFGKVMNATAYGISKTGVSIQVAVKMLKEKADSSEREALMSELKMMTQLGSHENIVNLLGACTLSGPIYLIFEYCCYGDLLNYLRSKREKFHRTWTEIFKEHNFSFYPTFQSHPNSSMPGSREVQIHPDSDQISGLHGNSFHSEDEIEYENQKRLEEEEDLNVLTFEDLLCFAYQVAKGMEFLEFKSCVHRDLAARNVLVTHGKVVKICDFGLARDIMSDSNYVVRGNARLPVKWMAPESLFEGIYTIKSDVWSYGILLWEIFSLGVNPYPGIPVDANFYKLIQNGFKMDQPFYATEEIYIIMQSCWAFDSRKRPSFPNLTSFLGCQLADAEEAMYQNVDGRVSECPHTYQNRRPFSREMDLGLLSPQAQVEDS
Protocol: Compounds were screened for their ability to inhibit FLT-3 activity using a radiometric filter-binding assay. This assay monitors the ^33P incorporation into a substrate poly(Glu, Tyr) 4:1 (pE4Y). Reactions were carried out in a solution containing 100 mM HEPES (pH 7.5), 10 mM MgCl2, 25 mM NaCl, 1 mM DTT, 0.01% BSA and 2.5% DMSO. Final substrate concentrations in the assay were 90 μM ATP and 0.5 mg/mL pE4Y (both from Sigma Chemicals, St Louis, Mo.). The final concentration of compounds is generally between 0.01 and 5 μM. Typically, a 12-point titration was conducted by preparing serial dilutions from 10 mM DMSO stock of test compound. Reactions were carried out at room temperature.
Two assay solutions were prepared. Solution 1 contains 100 mM HEPES (pH 7.5), 10 mM MgCl2, 25 mM NaCl, 1 mg/ml pE4Y and 180 μM ATP (containing 0.3 μCi of [γ-^33P]ATP for each reaction). Solution 2 contains 100 mM HEPES (pH 7.5), 10 mM MgCl2, 25 mM NaCl, 2 mM DTT, 0.02% BSA and 3 nM FLT-3. The assay was run on a 96 well plate by mixing 50 μL each of Solution1 and 2.5 mL of the test compounds. The reaction was initiated with Solution2. After incubation for 20 minutes at room temperature, the reaction was stopped with 50 μL of 20% TCA containing 0.4 mM of ATP. All of the reaction volume was then transferred to a filter plate and washed with 5% TCA by a Harvester9600 from TOMTEC (Hamden, Conn.). The amount of ^33P incorporation into pE4y was analyzed by a Packard TopCount Microplate Scintillation Counter (Meriden, Conn.). The data was fitted using Prism software to get an IC50 or Ki.

[2] = biological target: T2, human Src kinase (Homo sapiens, UniProt P12931); assay: Src inhibition assay B: spectrophotometric (uv-vis) coupled enzyme assay; assay type: biochemical; details: 100 μM ATP
T2 construct: 25 nM of recombinant human Src kinase
Protocol: The compounds are evaluated as inhibitors of human Src kinase using either a radioactivity-based assay or spectrophotometric assay.
Src Inhibition Assay B: Spectrophotometric Assay
The ADP produced from ATP by the human recombinant Src kinase-catalyzed phosphorylation of poly Glu-Tyr substrate is quantified using a coupled enzyme assay [Fox et al. Protein Sci. 1998, 7, 2249]. In this assay one molecule of NADH is oxidised to NAD for every molecule of ADP produced in the kinase reaction. The disappearance of NADH is conveniently followed at 340 nm.
The following are the final concentrations of the assay components: 0.025 M HEPES (pH 7.6), 10 mM MgCl2, 2 mM DTT, 0.25 mg/ml poly Glu-Tyr, and 25 nM of recombinant human Src kinase. Final concentrations of the components of the coupled enzyme system are 2.5 mM phosphoenolpyruvate, 200 μM NADH, 30 μg/ml pyruvate kinase and 10 μg/ml lactate dehydrogenase.
In a typical assay, all the reaction components with the exception of ATP are pre-mixed and aliquoted into assay plate wells. Inhibitors dissolved in DMSO are added to the wells to give a final DMSO concentration of 2.5%. The assay plate is incubated at 30° C. for 10 min before initiating the reaction with 100 μM ATP. The absorbance change at 340 nm with time, the rate of the reaction, is monitored on a molecular devices plate reader. The data of rate as a function of the inhibitor concentration is fitted to competitive inhibition kinetics model to get the Ki for the compound.

T2 sequence (P12931 whole entry): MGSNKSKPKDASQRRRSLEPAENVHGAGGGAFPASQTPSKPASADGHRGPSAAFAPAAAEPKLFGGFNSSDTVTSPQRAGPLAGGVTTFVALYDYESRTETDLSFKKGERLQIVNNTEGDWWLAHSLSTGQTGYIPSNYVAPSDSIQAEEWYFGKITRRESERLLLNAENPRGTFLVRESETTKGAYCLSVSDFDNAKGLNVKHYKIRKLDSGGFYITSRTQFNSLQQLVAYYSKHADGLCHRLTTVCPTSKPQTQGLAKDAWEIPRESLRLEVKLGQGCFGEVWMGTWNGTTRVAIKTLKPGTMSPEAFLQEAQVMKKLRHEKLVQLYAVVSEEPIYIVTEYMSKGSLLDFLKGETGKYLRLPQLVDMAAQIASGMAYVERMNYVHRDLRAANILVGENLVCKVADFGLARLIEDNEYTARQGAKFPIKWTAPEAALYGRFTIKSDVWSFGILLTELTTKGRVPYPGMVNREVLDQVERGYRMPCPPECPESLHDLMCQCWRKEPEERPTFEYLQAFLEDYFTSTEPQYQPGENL

Compound	Ki [1]	Ki [2]
CC(=O)N1[C@H](C)CN(c2cc(-n3cnc(Nc4ccc(NC(=O)c5ccco5)cc4)n3)ccn2)C[C@@H]1C [Compound I-81, Furan-2-carboxylic acid (4-{1-[2-(4-acetyl-3,5-dimethyl-piperazin-1-yl)-pyridin-4-yl]-1H-[1,2,4]triazol-3-ylamino}-phenyl)-amide]	< 0.06 µM	< 0.5 µM
CC(=O)N1[C@H](C)CN(c2cc(-n3cnc(Nc4ccc(N)cc4)n3)ccn2)C[C@@H]1C [Compound I-82]	< 0.06 µM	< 0.5 µM
CC(=O)N1[C@H](C)CN(c2cc(-n3cnc(Nc4ccc(N5CCOCC5)cc4)n3)ccn2)C[C@@H]1C [Compound I-85, 1-(2,6-Dimethyl-4-{4-[3-(4-morpholin-4-yl-phenylamino)-[1,2,4]triazol-1-yl]-pyridin-2-yl}-piperazin-1-yl)-ethanone]	0.03 to 0.2 µM	0.5 to 1 µM
CCCOC(=O)Nc1ccc(Nc2ncn(-c3ccnc(N4C[C@@H](C)N(C(C)=O)[C@@H](C)C4)c3)n2)cc1 [Compound I-88]	0.03 to 0.2 µM	< 0.5 µM
CC(=O)N1[C@H](C)CN(c2cc(-n3cnc(Nc4ccc(NC(=O)OC(C)C)cc4)n3)ccn2)C[C@@H]1C [Compound I-89]	0.03 to 0.2 µM	0.5 to 1 µM
CC(=O)N1[C@H](C)CN(c2cc(-n3cnc(Nc4ccc(NC(=O)OCC(C)C)cc4)n3)ccn2)C[C@@H]1C [Compound I-90]	0.03 to 0.2 µM	0.5 to 1 µM
CC(=O)N1[C@H](C)CN(c2cc(-n3cnc(Nc4ccc(NC(=O)OCC(C)(C)C)cc4)n3)ccn2)C[C@@H]1C [Compound I-91]	0.03 to 0.2 µM	0.5 to 1 µM
CC(=O)N1[C@H](C)CN(c2cc(-n3cnc(Nc4ccc(N5CCN(S(=O)(=O)c6ccc(C)cc6)CC5)cc4)n3)ccn2)C[C@@H]1C [Compound I-92]	0.03 to 0.2 µM	0.5 to 1 µM
O=C(CC1CCCC1)Nc1cc(-n2cnc(Nc3ccccc3)n2)ccn1 [Compound I-94, 2-Cyclopentyl-N-[4-(3-phenylamino-[1,2,4]triazol-1-yl)-pyridin-2-yl]-acetamide]	0.001 to 0.03 µM	< 0.5 µM
O=C(CCc1ccccc1)Nc1cc(-n2cnc(Nc3ccccc3)n2)ccn1 [Compound I-95]	0.001 to 0.03 µM	< 0.5 µM
O=C(Cc1ccccc1)Nc1cc(-n2cnc(Nc3ccccc3)n2)ccn1 [Compound I-96]	0.001 to 0.03 µM	< 0.5 µM
CC(=O)N1[C@H](C)CN(c2cc(-n3cnc(Nc4ccc(N5CCN(C(=O)OC(C)(C)C)CC5)cc4)n3)ccn2)C[C@@H]1C [Compound I-97, 4-(4-{1-[2-(4-Acetyl-3,5-dimethyl-piperazin-1-yl)-pyridin-4-yl]-1H-[1,2,4]triazol-3-ylamino}-phenyl)-piperazine-1-carboxylic acid tert-butyl ester]	0.001 to 0.03 µM	< 0.5 µM
CCNC(=O)Nc1ccc(Nc2ncn(-c3ccnc(N4C[C@@H](C)N(C(C)=O)[C@@H](C)C4)c3)n2)cc1 [Compound I-98, 1-(4-{1-[2-(4-Acetyl-3,5-dimethyl-piperazin-1-yl)-pyridin-4-yl]-1H-[1,2,4]triazol-3-ylamino}-phenyl)-3-ethyl-urea]	0.001 to 0.03 µM	< 0.5 µM
CCCNC(=O)Nc1ccc(Nc2ncn(-c3ccnc(N4C[C@@H](C)N(C(C)=O)[C@@H](C)C4)c3)n2)cc1 [Compound I-99]	0.001 to 0.03 µM	< 0.5 µM
CC(=O)N1[C@H](C)CN(c2cc(-n3cnc(Nc4ccc(NC(=O)NC(C)C)cc4)n3)ccn2)C[C@@H]1C [Compound I-100]	0.001 to 0.03 µM	< 0.5 µM
CC(=O)N1[C@H](C)CN(c2cc(-n3cnc(Nc4ccc(NC(=O)NC(C)(C)C)cc4)n3)ccn2)C[C@@H]1C [Compound I-101]	0.03 to 0.2 µM	0.5 to 1 µM
CC(C)(C)CC(=O)Nc1cc(-n2cnc(Nc3ccccc3)n2)ccn1 [Compound I-102]	0.001 to 0.03 µM	< 0.5 µM
c1ccc(-n2cnc(Nc3ccnc(N4CCOCC4)c3)n2)cc1 [Compound I-105]	0.001 to 0.03 µM	< 0.5 µM
c1ccc(-n2cnc(Nc3ccc(N4CCOCC4)cc3)n2)cc1 [Compound I-106]	0.03 to 0.2 µM	> 1 µM
c1ccc(-n2cnc(Nc3ccnc(NCCN4CCOCC4)c3)n2)cc1 [Compound I-107]	0.03 to 0.2 µM	> 1 µM
c1ccc(-n2cnc(Nc3ccc(N4CCOCC4)nc3)n2)cc1 [Compound I-134]	0.03 to 0.2 µM and > 0.2 µM	> 1 µM
CN1CCN(c2ccc(Nc3ncn(-c4ccccc4)n3)cn2)CC1 [Compound I-135]	0.03 to 0.2 µM	> 1 µM
